According to US20090312280A1:

Tests used:
[1] = system: Colo205 human colon carcinoma xenografts; assay: in vivo chemopotentiation, Colo205 xenograft; parameters: species or system mice
Procedure: (§1) Experiments 1 to 39 were conducted in mice xenografts. Experiments 40-42 were conducted in rat xenografts. Specifically, irinotecan combination studies were conducted in HT29 and Colo205. Gemcitabine combination studies were conducted in Colo205. Docetaxel combination studies were conducted in Colo205.
(§2) Gemcitabine and irinotecan are DNA directed cytotoxics known to induce checkpoint activation and subsequent S/G2M-phase arrest. […] Docetaxel is an antimitotics where recent discoveries describe a novel function for CHK1 in the mitotic checkpoint.

HT29 (Colon) = assay: cell survival / MTT combination cytotoxicity; format: cell-based, human; conditions: HT29; IC50 cytotoxic agent alone / IC50 combination; Compound 1 at 8x EC50 (360 nM)
MDA-MB-231 (Breast) = assay: cell survival / MTT combination cytotoxicity; format: cell-based, human; conditions: IC50 cytotoxic agent alone / IC50 combination, Compound 1 at 8x EC50 (360 nM)
K562 (Leukemia) = assay: cell survival / MTT combination cytotoxicity; format: cell-based, human; conditions: IC50 cytotoxic agent alone / IC50 combination, Compound 1 at 4x EC50 (180 nM)
PC-3 (Prostate) = assay: cell survival / MTT combination cytotoxicity; format: cell-based, human; conditions: PC-3; IC50 cytotoxic agent alone / IC50 combination; Compound 1 at 8x EC50 (360 nM)
Colo205 (Colon) = assay: cell survival / MTT combination cytotoxicity; format: cell-based, human; conditions: Colo205; IC50 cytotoxic agent alone / IC50 combination; Compound 1 at 8x EC50 (360 nM)
[2] = system: HT29 human colon carcinoma xenografts; assay: in vivo chemopotentiation, HT29 xenograft (mice)
Procedure: as §1, §2

[3] = system: HT29 human colon carcinoma xenografts; assay: in vivo chemopotentiation, HT29 xenograft (rat)
Procedure: as §1, §2

[4] = Exp 18, docetaxel 30 mg/kg, Compound 1 30 mg/kg as printed, IP Q1w×3
[5] = Exp 19, docetaxel 30 mg/kg + Compound 1 7.5 mg/kg, IP simultaneously Q1w×3
[6] = Exp 20, docetaxel 30 mg/kg + Compound 1 15 mg/kg, IP simultaneously Q1w×3
[7] = Exp 21, docetaxel 30 mg/kg + Compound 1 30 mg/kg, IP simultaneously Q1w×3
[8] = Exp 22, docetaxel 15 mg/kg, Compound 1 15 mg/kg as printed, IP Q1w×3
[9] = Exp 23, docetaxel 15 mg/kg + Compound 1 15 mg/kg, IP simultaneously Q1w×3
[10] = Exp 24, docetaxel 15 mg/kg + Compound 1 30 mg/kg, IP simultaneously Q1w×3
[11] = Exp 25, docetaxel 15 mg/kg Q1w×3 + Compound 1 60 mg/kg, IP simultaneously, Compound 1 two cycles, total 120 mg/kg
[12] = Exp 26, irinotecan 10 mg/kg IP Q3d×4, Compound 1 0 mg/kg
[13] = Exp 27, irinotecan 10 mg/kg IP Q3d×4 + Compound 1 4 mg/kg IP Q3d×4 24 h after
[14] = Exp 28, irinotecan 10 mg/kg IP Q3d×4 + Compound 1 20 mg/kg IP Q3d×4 24 h after
[15] = Exp 29, irinotecan 10 mg/kg IP Q3d×4 + Compound 1 40 mg/kg IP Q3d×4 24 h after
[16] = Exp 30, irinotecan 10 mg/kg IP Q3d×4, Compound 1 0 mg/kg
[17] = Exp 31, irinotecan 30 mg/kg IP Q3d×4, Compound 1 0 mg/kg
[18] = Exp 32, irinotecan 60 mg/kg IP Q3d×4, Compound 1 0 mg/kg
[19] = Exp 33, irinotecan 10 mg/kg IP Q3d×4 + Compound 1 40 mg/kg IP Q3d×4 24 h after
[20] = Exp 34, irinotecan 30 mg/kg IP Q3d×4 + Compound 1 40 mg/kg IP Q3d×4 24 h after
[21] = Exp 35, irinotecan 60 mg/kg IP Q3d×4 + Compound 1 40 mg/kg IP Q3d×4 24 h after
[22] = Exp 36, irinotecan 50 mg/kg IP Q1w×3, Compound 1 0 mg/kg
[23] = Exp 37, irinotecan 100 mg/kg IP Q1w×3, Compound 1 0 mg/kg
[24] = Exp 38, irinotecan 50 mg/kg IP Q1w×3 + Compound 1 40 mg/kg IP twice weekly, 24 and 72 h after, three weeks
[25] = Exp 39, irinotecan 100 mg/kg IP Q1w×3 + Compound 1 40 mg/kg IP twice weekly, 24 and 72 h after, three weeks
[26] = Exp 8, irinotecan 10 mg/kg IP Q3d×4, Compound 1 0 mg/kg
[27] = Exp 9, irinotecan 10 mg/kg IP Q3d×4 + Compound 1 4 mg/kg IP Q3d×4 24 h after
[28] = Exp 10, irinotecan 10 mg/kg IP Q3d×4 + Compound 1 20 mg/kg IP Q3d×4 24 h after
[29] = Exp 11, irinotecan 10 mg/kg IP Q3d×4 + Compound 1 40 mg/kg IP Q3d×4 24 h after
[30] = Exp 12, irinotecan 10 mg/kg IP Q3d×4, Compound 1 0 mg/kg
[31] = Exp 13, irinotecan 30 mg/kg IP Q3d×4, Compound 1 0 mg/kg
[32] = Exp 14, irinotecan 60 mg/kg IP Q3d×4, Compound 1 0 mg/kg
[33] = Exp 15, irinotecan 10 mg/kg IP Q3d×4 + Compound 1 40 mg/kg IP Q3d×4 24 h after
[34] = Exp 16, irinotecan 30 mg/kg IP Q3d×4 + Compound 1 40 mg/kg IP Q3d×4 24 h after
[35] = Exp 17, irinotecan 60 mg/kg IP Q3d×4 + Compound 1 40 mg/kg IP Q3d×4 24 h after
[36] = Exp 40, irinotecan 100 mg/kg IP Q3d×4, Compound 1 0 mg/kg
[37] = Exp 41, irinotecan 100 mg/kg IP Q3d×4 + Compound 1 25 mg/kg two hour IV infusion Q3d×4 24 h after
[38] = Exp 42, irinotecan 100 mg/kg IP Q3d×4 + Compound 1 100 mg/kg two hour IV infusion Q3d×4 24 h after

SMILES: CC(=O)O[C@@]12CO[C@@H]1C[C@H](O)[C@@]1(C)C(=O)[C@H](O)C3=C(C)[C@@H](OC(=O)[C@H](O)[C@@H](NC(=O)OC(C)(C)C)c4ccccc4)C[C@@](O)([C@@H](OC(=O)c4ccccc4)[C@H]21)C3(C)C [Docetaxel]
- % TGI [1, 4]: 85%
- Growth delay [1, 4]: 54 days
- % TGI [1, 5]: 90%
- % poten TGI [1, 5]: 35%
- Growth delay [1, 5]: 53 days
- % TGI [1, 6]: 93%
- % TTP [1, 6]: 36%
- % poten TGI [1, 6]: 57%
- Growth delay [1, 6]: 68 days
- % TGI [1, 7]: 103%
- % TTP [1, 7]: 50%
- % poten TGI [1, 7]: 122%
- Growth delay [1, 7]: 74 days
- % TGI [1, 8]: 49%
- Growth delay [1, 8]: 4.75 days
- % TGI [1, 9]: 65%
- % TTP [1, 9]: 72%
- % poten TGI [1, 9]: 31%
- Growth delay [1, 9]: 19.75 days
- % TGI [1, 10]: 79%
- % TTP [1, 10]: 177%
- % poten TGI [1, 10]: 59%
- Growth delay [1, 10]: 41.5 days
- % TGI [1, 11]: 99%
- % TTP [1, 11]: 145%
- % poten TGI [1, 11]: 99%
- Growth delay [1, 11]: 35 days

SMILES: CCc1c2c(nc3ccc(O)cc13)-c1cc3c(c(=O)n1C2)COC(=O)[C@]3(O)CC [SN-38]
- PF50 (Potentiation Factor50) (HT29 (Colon)): 3.7
- PF50 (Potentiation Factor50) (MDA-MB-231 (Breast)): 2.4
- PF50 (Potentiation Factor50) (K562 (Leukemia)): 1.9
- PF50 (Potentiation Factor50) (PC-3 (Prostate)): 1.3
- PF50 (Potentiation Factor50) (Colo205 (Colon)): 2.1

SMILES: CO[C@@]12[C@H](COC(N)=O)C3=C(C(=O)C(C)=C(N)C3=O)N1C[C@@H]1N[C@@H]12 [Mytomicin C]
- PF50 (Potentiation Factor50) (HT29 (Colon)): 3.7
- PF50 (Potentiation Factor50) (MDA-MB-231 (Breast)): 1.2
- PF50 (Potentiation Factor50) (Colo205 (Colon)): 5.3

SMILES: COc1cccc2c1C(=O)c1c(O)c3c(c(O)c1C2=O)C[C@@](O)(C(=O)CO)C[C@@H]3O[C@H]1C[C@H](N)[C@H](O)[C@H](C)O1 [Doxorubicin]
- PF50 (Potentiation Factor50) (HT29 (Colon)): 2.2
- PF50 (Potentiation Factor50) (MDA-MB-231 (Breast)): 2.25
- PF50 (Potentiation Factor50) (K562 (Leukemia)): 1.1
- PF50 (Potentiation Factor50) (PC-3 (Prostate)): 1.5
- PF50 (Potentiation Factor50) (Colo205 (Colon)): 1.1

SMILES: CCc1c2c(nc3ccc(OC(=O)N4CCC(N5CCCCC5)CC4)cc13)-c1cc3c(c(=O)n1C2)COC(=O)[C@]3(O)CC [Irinotecan]
- % TGI [2, 12]: 26%
- Growth delay [2, 12]: 1.75 days
- % TGI [2, 13]: 26%
- % TTP [2, 13]: 29%
- Growth delay [2, 13]: 7.5 days
- % TGI [2, 14]: 61%
- % TTP [2, 14]: 39%
- % poten TGI [2, 14]: 47%
- Growth delay [2, 14]: 9.5 days
- % TGI [2, 15]: 57%
- % TTP [2, 15]: 44%
- % poten TGI [2, 15]: 42%
- Growth delay [2, 15]: 10.5 days
- % TGI [2, 16]: 8%
- Growth delay [2, 16]: 2.75 days
- % TGI [2, 17]: 13%
- Growth delay [2, 17]: 4 days
- % TGI [2, 18]: 49%
- Growth delay [2, 18]: 12.5 days
- % TGI [2, 19]: 22%
- % TTP [2, 19]: 0%
- % poten TGI [2, 19]: 15%
- Growth delay [2, 19]: 1.0 days
- % TGI [2, 20]: 66%
- % TTP [2, 20]: 61%
- % poten TGI [2, 20]: 60%
- Growth delay [2, 20]: 17.5 days
- % TGI [2, 21]: 77%
- % TTP [2, 21]: 28%
- % poten TGI [2, 21]: 55%
- Growth delay [2, 21]: 21 days
- % TGI [2, 22]: 65%
- Growth delay [2, 22]: 7.5 days
- % TGI [2, 23]: 70%
- Growth delay [2, 23]: 11.5 days
- % TGI [2, 24]: 77%
- % TTP [2, 24]: 24%
- % poten TGI [2, 24]: 36%
- Growth delay [2, 24]: 14 days
- % TGI [2, 25]: 89%
- % TTP [2, 25]: 49%
- % poten TGI [2, 25]: 62%
- Growth delay [2, 25]: 21 days
- % TGI [1, 26]: 35%
- Growth delay [1, 26]: 18 days
- % TGI [1, 27]: 50%
- % poten TGI [1, 27]: 22%
- Growth delay [1, 27]: 18 days
- % TGI [1, 28]: 69%
- % TTP [1, 28]: 33%
- % poten TGI [1, 28]: 52%
- Growth delay [1, 28]: 24 days
- % TGI [1, 29]: 59%
- % TTP [1, 29]: 12%
- % poten TGI [1, 29]: 37%
- Growth delay [1, 29]: 20.5 days
- % TGI [1, 30]: 35%
- Growth delay [1, 30]: 18 days
- % TGI [1, 31]: 65%
- Growth delay [1, 31]: 22 days
- % TGI [1, 32]: 83%
- Growth delay [1, 32]: 48 days
- % TGI [1, 33]: 59%
- % TTP [1, 33]: 12%
- % poten TGI [1, 33]: 37%
- Growth delay [1, 33]: 20.5 days
- % TGI [1, 34]: 73%
- % TTP [1, 34]: 54%
- % poten TGI [1, 34]: 24%
- Growth delay [1, 34]: 34 days
- % TGI [1, 35]: 91%
- % TTP [1, 35]: 8%
- % poten TGI [1, 35]: 47%
- Growth delay [1, 35]: 52 days
- % TGI [3, 36]: 45%
- Growth delay [3, 36]: 4.0 days
- % TGI [3, 37]: 58%
- % poten TGI [3, 37]: 23%
- Growth delay [3, 37]: 4.0 days
- % TGI [3, 38]: 77%
- % TTP [3, 38]: 24%
- % poten TGI [3, 38]: 58%
- Growth delay [3, 38]: 8.0 days

SMILES: N.N.O=C([O-])C1(C(=O)[O-])CCC1.[Pt+2] [Carboplatin]
- PF50 (Potentiation Factor50) (HT29 (Colon)): 3
- PF50 (Potentiation Factor50) (MDA-MB-231 (Breast)): 2.55
- PF50 (Potentiation Factor50) (K562 (Leukemia)): 1.9
- PF50 (Potentiation Factor50) (PC-3 (Prostate)): 3.1
- PF50 (Potentiation Factor50) (Colo205 (Colon)): 5.4
